Measured values: ChEMBL document CHEMBL5260835, “Therapeutic potential of quercetin as a cardiovascular agent” (2018)

Columns and labels:
Mus musculus [1] = species on record: Mus musculus; experiment: Effect on palmitic level in serum of high fat diet induced mouse model assessed as reduction in palmitic level relative to control; type: functional; parameters: scale not given: the % may be the effect or the level left
Oryctolagus cuniculus [2] = species on record: Oryctolagus cuniculus; experiment: Cardioprotective activity in rabbit model assessed as resistance relaxation at 5.6 uM; type: functional; parameters: scale not given: the % may be the effect or the level left
Oryctolagus cuniculus [3] = species on record: Oryctolagus cuniculus; experiment: Cardioprotective activity in rabbit model assessed as conductivity relaxation at 5.6 uM; type: functional; parameters: scale not given: the % may be the effect or the level left
Rattus norvegicus [4] = species on record: Rattus norvegicus; experiment: Activation of rat Na(+)/K(+) ATPase assessed as increase in maximum velocity relative to control
Oryctolagus cuniculus [5] = species on record: Oryctolagus cuniculus; experiment: Cardioprotective activity in rabbit model assessed as conductivity relaxation at 8 uM; type: functional; parameters: scale not given: the % may be the effect or the level left
Mus musculus [6] = species on record: Mus musculus; experiment: Antiatherosclerotic activity in Apoe-/- mouse assessed as attenuation of coronary artery illness relative to control; type: functional
Mus musculus [7] = species on record: Mus musculus; experiment: Effect on triglyceride level in serum of high fat diet induced mouse model assessed as reduction in triglycerides level relative to control; type: functional; parameters: scale not given: the % may be the effect or the level left
Mus musculus [8] = experiment: Cardioprotection in […] assessed as decrease in mean arterial pressure at 5 to 10 mg/kg, po measured after 13 weeks relative control; type: functional; parameters: scale not given: the % may be the effect or the level left; conditions: dose 5-10 mg/kg
Oryctolagus cuniculus [9] = species on record: Oryctolagus cuniculus; experiment: Cardioprotective activity in rabbit model assessed as resistance relaxation at 8 uM; type: functional; parameters: scale not given: the % may be the effect or the level left
Oryctolagus cuniculus [10] = species on record: Oryctolagus cuniculus; experiment: Cardioprotective activity in rabbit model assessed as conductivity relaxation at 30 uM; type: functional; parameters: scale not given: the % may be the effect or the level left
Mus musculus [11] = species on record: Mus musculus; experiment: Effect on linoleic level in serum of high fat diet induced mouse model assessed as reduction in linoleic level relative to control; type: functional; parameters: scale not given: the % may be the effect or the level left
Mus musculus [12] = species on record: Mus musculus; experiment: Effect on oleic level in serum of high fat diet induced mouse model assessed as reduction in oleic level relative to control; type: functional; parameters: scale not given: the % may be the effect or the level left
Oryctolagus cuniculus [13] = species on record: Oryctolagus cuniculus; experiment: Cardioprotective activity in rabbit model assessed as resistance relaxation at 30 uM; type: functional; parameters: scale not given: the % may be the effect or the level left
Rattus norvegicus [14] = experiment: Hypotensive effect in rat at 100 nmol/kg,po; type: functional

Compound | Activity (Mus musculus [1]) [%] | Activity (Oryctolagus cuniculus [2]) [%] | Activity (Oryctolagus cuniculus [3]) [%] | Activity (Rattus norvegicus [4]) [%] | Activity (Oryctolagus cuniculus [5]) [%] | Activity (Mus musculus [6]) [%] | Activity (Mus musculus [7]) [%] | Activity (Mus musculus [8]) [%] | Activity (Oryctolagus cuniculus [9]) [%] | Activity (Oryctolagus cuniculus [10]) [%] | Activity (Mus musculus [11]) [%] | Activity (Mus musculus [12]) [%] | Activity (Oryctolagus cuniculus [13]) [%] | Activity (Rattus norvegicus [14]) [mmHg]
O=c1c(O)c(-c2ccc(O)c(O)c2)oc2cc(O)cc(O)c12 [QUERCETIN] | 9 | -3.2 | -20 | 15 | -3.2 | 86 | 14 | -12 | -47 | -72 | 9 | 9 | -82 | 
C[C@H](CS)C(=O)N1CCC[C@H]1C(=O)O [CAPTOPRIL] |  |  |  |  |  |  |  |  |  |  |  |  |  | 29.7
